Where “and” joins values, the source holds several entries; their conditions need not be identical. Equal entries are not always repeated.
Columns and labels:
BPntase = conditions: cited from earlier work
adenylate cyclase = conditions: preparations of native adenylate cyclase-containing membranes; P-site inhibitor; read-out: IC50 for inhibition of adenylate cyclase; cited from earlier work
[1] = biological target: T1, GST-PST (mouse phenol-preferring sulfotransferase fused to GST) (Mus musculus, UniProt P52840); test: Binding of radiolabeled PAP to GST-PST (Scatchard); conditions: 100 nM purified GST-PST; Scatchard plot
T1 construct: The PST open reading frame was subcloned into the BamHI and NotI sites of pGEX4T-1; made in house; host or cells: bacteria (pGEX4T-1)
T1 sequence (P52840 whole entry, the tested form may be a part): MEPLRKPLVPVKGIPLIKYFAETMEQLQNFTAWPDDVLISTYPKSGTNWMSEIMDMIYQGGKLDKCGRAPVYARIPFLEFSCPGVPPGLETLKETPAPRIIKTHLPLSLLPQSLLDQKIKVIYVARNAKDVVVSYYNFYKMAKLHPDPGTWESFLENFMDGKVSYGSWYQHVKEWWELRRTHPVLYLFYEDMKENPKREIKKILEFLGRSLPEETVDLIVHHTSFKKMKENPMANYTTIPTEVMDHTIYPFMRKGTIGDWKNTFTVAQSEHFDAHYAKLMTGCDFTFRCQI
Experimental: FIG. 8 is a graph showing binding of PAP to GST-PST. Binding of radiolabeled PAP to 100 nM purified GST-PST was assayed in the presence of various concentrations of unlabeled PAP. […] The data are linear and intersect the y-axis at [Sb]/[Sf]=2.8.
Measurement of intracellular PAP concentrations. A novel isotope binding competition assay was developed to measure intracellular concentrations of PAP. The concentration of PAP in lysates was determined by the binding of radiolabeled PAP to the enzyme phenol (aryl) sulfotransferase (PST), which uses PAP as a cofactor (Yang, 1996b). […] The open reading frame was amplified by PCR using the primers 5′ […] (SEQ ID NO: 15) and 5′ […] (SEQ ID NO: 16) where the underlined sequences correspond to sequence in the PST open reading frame. The PCR product was gel purified and ligated into the pCR2.1 vector. […] The PST open reading frame was subcloned into the BamHI and NotI sites of pGEX4T-1 to create a bacterial expression vector in which PST was expressed in frame downstream of GST (GST-PST). […]
For the assay of intracellular PAP concentrations, appropriate yeast strains were grown in CM/ura^− to mid-log phase (OD600=1.0). […] The amount of soluble protein in this extract was determined using a Bradford dye-binding assay (BioRad, Hercules, Calif., United States of America) with bovine serum albumin as a standard. […]

[2] = system: intracellular PAP in wild type yeast; test: Intracellular PAP concentration by GST-PST binding assay, wild type yeast; format: cell-based, S. cerevisiae
Experimental: (§1) Yeast were grown in CM/ura^− containing 2% galactose to mid-log phase. The cultures were washed extensively and resuspended in the CM/ura^−/met^− media with the noted inclusions. PAP was measured using the ligand binding assay described in Experimental Procedures. Intracellular PAP concentrations were normalized to the amount of soluble protein extracted from the cultures.
For the assay of intracellular PAP concentrations, appropriate yeast strains were grown in CM/ura^− to mid-log phase (OD600=1.0). The cells were centrifuged and washed extensively in sterile water. The cells were resuspended in CM/ura^−/met^− containing methionine (20 μg/ml), lithium, or chlorate as appropriate. The cultures were incubated with shaking at 30° C. At various time points, 2 ml of culture was removed and centrifuged. The cells were washed with 1 ml of water. 250 μl was centrifuged and resuspended in 200 μl K-lysis buffer. 200 μl of glass beads were added, and the cells were disrupted by vigorous bead beating. The amount of soluble protein in this extract was determined using a Bradford dye-binding assay (BioRad, Hercules, Calif., United States of America) with bovine serum albumin as a standard. The remaining 750 μl of washed cells was spun down and resuspended in 250 μl of 2 N HClO4. This was incubated at 4° C. for 20 min, when 250 μl of 1.8 N KOH, 0.4 N KHCO3 were added to neutralize and precipitate the HClO4. The extract was centrifuged at 4° C. to remove the debris, and the supernatant was lyophilized using a rotary evaporator. The dried extracts were frozen at −80° C. for no more than one week prior to use. Extracts were reconstituted in 100 μL of 200 mM HEPES, pH 7.5 and again centrifuged to remove debris. 5′ [^32P] 3′, 5′ PAP was created as described (Spiegelberg, 1999). The GST-PST assay was performed by mixing 10 μL of standard PAP, treated as above, or 10 μL of sample diluted approximately 1:1000 in K-lysis buffer, with 10 μL of radiolabeled PAP (approximately 10,000 CPM). Eighty microliters of a reaction mix containing 100 mM HEPES, pH 7.0, 5 mM DTT, 0.2 mg/ml BSA, and 1 μg of GST-PST were added to start the binding reaction. The reactions were allowed to equilibrate for at least one hour at room temperature. Following incubation, 20 μl of a 50:50 slurry of glutathione sepharose in K-lysis buffer was added. The tubes were incubated with gentle mixing for 10 min at room temperature. The protein with bound PAP was pulled down by centrifugation for 2 min at room temperature. 80 μl of the supernatant, containing free PAP, was removed to a scintillation vial and 200 μl of K-lysis buffer was added to wash the resin. The tubes were centrifuged again and the 200 μl wash was transferred to the original scintillation vials. Radioactivity was determined by adding 5 ml of […] ECONO2™ scintillation fluid (Fisher Scientific, Hampton, N.H., United States of America) and counted in a liquid scintillation counter. The counts were converted to percent isotope bound, and a standard curve was prepared by plotting percent bound vs. the logarithm of the PAP concentration. […]
The GST-PST binding assay was used to determine relative intracellular PAP concentrations in yeast strains grown under various conditions. The PAP concentration determined in the binding assay was normalized to the total soluble protein in parallel extracts, and background was eliminated by reporting only the signal that was sensitive to in vitro degradation by purified recombinant Hal2p. […]

cultured IMCD cells = test: cAMP production during stimulation of cultured IMCD cells; format: cell-based, mouse; conditions: lithium present
Wild type yeast = test: Lithium inhibition of yeast growth (OD600), wild type; format: cell-based, S. cerevisiae; conditions: CM/ura−/met−, 24 hr at 30° C.
Experimental: FIG. 7 is a graph showing met3Δ and met14Δ strains are lithium resistant. Wild type, met3Δ, and met14Δ yeast were resuspended at 5×10^4/ml in CM/ura^− containing 2% dextrose and 1.25 μg/ml methionine. Growth at various concentrations of LiCl was measured after a 24 hr incubation at 30° C. The growth is plotted relative to growth in media lacking lithium.
FIG. 10 is a graph showing methionine supplementation induces lithium resistance. Wild type yeast were inoculated at 5×10^4 cells per ml into synthetic media with or without methionine containing the noted concentration of LiCl. Growth was assayed by spectrophotometry following 48 hrs of growth at 30° C.
Wild type yeast were grown in CM/ura^− containing 2% galactose to mid-log phase. The cultures were washed and resuspended at 5×10^5 cells/ml in CM/ura^−/met^− containing the noted lithium and chlorate concentrations. Following growth for 24 hr at 30° C., the cultures were resuspended, and growth was measured by determining the absorbance at λ=600 nm.
Since methionine effects transcriptional down regulation of the MET3 and MET14 gene products in wild type yeast, the relative lithium sensitivities of the met3Δ and met14Δ strains were assayed in growth media containing reduced methionine (1.25 μg/ml). The use of limited methionine allowed for the comparison of the relative sensitivity to lithium of yeast expressing (wild type) or lacking (met3Δ and met14Δ) PAPS synthetase activities.
The yeast system was used to determine if chlorate could be used to effect a relevant decrease in the accumulation of PAP in the presence of lithium. […] The decrease in PAP accumulation was physiologically relevant since chlorate produced a protective effect in the presence of lithium. […] When 25 mM NaClO3 is included in the culture medium, the growth inhibition is abated, with the IC50 increasing to approximately 80 mM LiCl (FIG. 11)

[3] = system: intracellular PAP in met14Δ cells; format: cell-based, S. cerevisiae
Experimental: as §1
(§2) For the assay of intracellular PAP concentrations, appropriate yeast strains were grown in CM/ura^− to mid-log phase (OD600=1.0). The cells were centrifuged and washed extensively in sterile water. The cells were resuspended in CM/ura^−/met^− containing methionine (20 μg/ml), lithium, or chlorate as appropriate. The cultures were incubated with shaking at 30° C. At various time points, 2 ml of culture was removed and centrifuged. The cells were washed with 1 ml of water. 250 μl was centrifuged and resuspended in 200 μl K-lysis buffer. 200 μl of glass beads were added, and the cells were disrupted by vigorous bead beating. The amount of soluble protein in this extract was determined using a Bradford dye-binding assay (BioRad, Hercules, Calif., United States of America) with bovine serum albumin as a standard. The remaining 750 μl of washed cells was spun down and resuspended in 250 μl of 2 N HClO4. This was incubated at 4° C. for 20 min, when 250 μl of 1.8 N KOH, 0.4 N KHCO3 were added to neutralize and precipitate the HClO4. The extract was centrifuged at 4° C. to remove the debris, and the supernatant was lyophilized using a rotary evaporator. The dried extracts were frozen at −80° C. for no more than one week prior to use. Extracts were reconstituted in 100 μL of 200 mM HEPES, pH 7.5 and again centrifuged to remove debris. 5′ [^32P] 3′, 5′ PAP was created as described (Spiegelberg, 1999). The GST-PST assay was performed by mixing 10 μL of standard PAP, treated as above, or 10 μL of sample diluted approximately 1:1000 in K-lysis buffer, with 10 μL of radiolabeled PAP (approximately 10,000 CPM). Eighty microliters of a reaction mix containing 100 mM HEPES, pH 7.0, 5 mM DTT, 0.2 mg/ml BSA, and 1 μg of GST-PST were added to start the binding reaction. The reactions were allowed to equilibrate for at least one hour at room temperature. Following incubation, 20 μl of a 50:50 slurry of glutathione sepharose in K-lysis buffer was added. The tubes were incubated with gentle mixing for 10 min at room temperature. The protein with bound PAP was pulled down by centrifugation for 2 min at room temperature. 80 μl of the supernatant, containing free PAP, was removed to a scintillation vial and 200 μl of K-lysis buffer was added to wash the resin. The tubes were centrifuged again and the 200 μl wash was transferred to the original scintillation vials. Radioactivity was determined by adding 5 ml of […] ECONO2™ scintillation fluid (Fisher Scientific, Hampton, N.H., United States of America) and counted in a liquid scintillation counter. The counts were converted to percent isotope bound, and a standard curve was prepared by plotting percent bound vs. the logarithm of the PAP concentration. This standard curve was used to back-calculate the PAP concentration in the unknown samples.
(§3) The GST-PST binding assay was used to determine relative intracellular PAP concentrations in yeast strains grown under various conditions. The PAP concentration determined in the binding assay was normalized to the total soluble protein in parallel extracts, and background was eliminated by reporting only the signal that was sensitive to in vitro degradation by purified recombinant Hal2p. The assay was characterized further by analyzing the intracellular PAP concentration of wild type yeast grown in the presence of lithium.

[4] = system: intracellular PAP in met3Δ cells; format: cell-based, S. cerevisiae
Experimental: as §1, §2, §3

## Nc1ncnc2c1ncn2[C@@H]1O[C@H](COP(=O)(O)OS(=O)(=O)O)[C@@H](OP(=O)(O)O)[C@H]1O [3′-phosphoadenosine 5′-phosphosulfate]
BPntase; removal of 3′-phosphate
  Vmax of BPntase substrate: 40 µmol/min/mg
BPntase; removal of 3′-phosphate, read-out: Km of BPntase substrate
  Km: 0.5 µM

## Nc1ncnc2c1ncn2[C@@H]1O[C@H](COP(=O)(O)O)[C@@H](OP(=O)(O)O)[C@H]1O [PAP, 3′-phosphoadenosine 5′-phosphate]
Adenylate cyclase
  IC50: ~50 µM
[1]
  Kd: ~0.035 µM and 0.0357 µM

## [O-][Cl+2]([O-])O [chlorate]
[2]; wild type, 100 mM lithium plus 25 mM NaClO3
  Fold PAP accumulation with chlorate: 30.8 fold
[2]; yeast, lithium present
  Effect of chlorate on lithium-dependent PAP accumulation / production: inhibited production of PAP in vivo
Cultured IMCD cells
  Effect of chlorate on accumulation of cAMP: partially restored
Wild type yeast
  Effect of chlorate on sensitivity of yeast growth to lithium: reduces sensitivity
[3]; met14Δ expressing hPAPSS2, 100 mM lithium plus 25 mM NaClO3
  Fold PAP accumulation with chlorate: 22.1 fold
[4]; met3Δ expressing hPAPSS2, 100 mM lithium plus 25 mM NaClO3
  Fold PAP accumulation with chlorate: 27.0 fold

## O=P(O)(O)O[C@H]1[C@H](O)[C@@H](O)[C@H](OP(=O)(O)O)[C@@H](O)[C@H]1O [inositol 1,4-bisphosphate]
BPntase; read-out: Ki, competitive inhibition of BPntase
  Ki: 15 µM

## CSCC[C@H](N)C(=O)O [methionine]
[2]; wild type, lithium present, methionine 20 μg/ml in media
  Intracellular PAP concentration with methionine: 2.3 nmol/mg
[3]; met14Δ expressing hPAPSS2 from galactose-inducible vector, lithium present
  Effect of methionine on PAP accumulation: little effect
[4]; met3Δ expressing hPAPSS2 from galactose-inducible vector, lithium present
  Effect of methionine on PAP accumulation: little effect

Source: US20050037450A1, “Novel targets for lithium therapy” (Duke University, priority 2002, published 2005)
